Values quoted from earlier work as cited in patent US20020103221A1, “Use of growth hormone secretagogues for improvement of functional health status” (priority 2000, published 2002).
Non-standard residues stand in square brackets, D forms with d. Residues, ends and D or L forms follow the SMILES beside them. d2Nal = N[C@H](Cc1ccc2ccccc2c1)C(=O)O; Aib = CC(C)(N)C(=O)O

Experiments:
[1] = test system: markers of bone formation and bone resorption; conditions: obese young males
[2] = test system: serum insulin-like growth factor-I; quadriceps muscle; conditions: canines, during remobilization
[3] = adult female rats
[4] = GH-deficient adults

CC(C)(N)C(=O)N[C@H](COCc1ccccc1)C(=O)N1CCC2(CC1)CN(S(C)(=O)=O)c1ccccc12 [MK-0677]
markers of bone formation and bone resorption [1]: increases
levels of serum insulin-like growth factor-I [2]: elevated
size and strength of the quadriceps muscle [2]: increased

CC(C)(N)C(=O)N[C@@H](Cc1c[nH]cn1)C(=O)N[C@H](Cc1ccc2ccccc2c1)C(=O)N[C@H](Cc1ccccc1)C(=O)N[C@@H](CCCCN)C(N)=O [ipamorelin] (H-[Aib]H[d2Nal][dF]K-NH2)
bone mass [3]: capacity to increase bone mass

GHRP-6
bone mass [3]: capacity to increase bone mass

growth hormone: growth hormone replacement given to GH-deficient adults
self-perceived well-being [4]: significant improvements
